According to patent publication US20140205681A1, “HYDROGEN-BOND SURROGATE PEPTIDES AND PEPTIDOMIMETICS FOR p53 REACTIVATION” (New York University, priority 2013, published 2014):

Experiments:
MDM2-p300 = target: T1, MDM2-p300 (Homo sapiens, UniProt Q09472); assay: Immunoprecipitation of MDM2-p300 association; assay type: cell-based; settings: introduction of CH1, UMSCC74A cells
T1 construct: Cell lysates were extracted, immunoprecipitated with anti-p300 antibody, and immunoblotted with anti-MDM2; endogenous in cells; host or cells: UMSCC74A (HPV-negative, p53 wildtype HNSCC)
T1 sequence (Q09472 whole entry): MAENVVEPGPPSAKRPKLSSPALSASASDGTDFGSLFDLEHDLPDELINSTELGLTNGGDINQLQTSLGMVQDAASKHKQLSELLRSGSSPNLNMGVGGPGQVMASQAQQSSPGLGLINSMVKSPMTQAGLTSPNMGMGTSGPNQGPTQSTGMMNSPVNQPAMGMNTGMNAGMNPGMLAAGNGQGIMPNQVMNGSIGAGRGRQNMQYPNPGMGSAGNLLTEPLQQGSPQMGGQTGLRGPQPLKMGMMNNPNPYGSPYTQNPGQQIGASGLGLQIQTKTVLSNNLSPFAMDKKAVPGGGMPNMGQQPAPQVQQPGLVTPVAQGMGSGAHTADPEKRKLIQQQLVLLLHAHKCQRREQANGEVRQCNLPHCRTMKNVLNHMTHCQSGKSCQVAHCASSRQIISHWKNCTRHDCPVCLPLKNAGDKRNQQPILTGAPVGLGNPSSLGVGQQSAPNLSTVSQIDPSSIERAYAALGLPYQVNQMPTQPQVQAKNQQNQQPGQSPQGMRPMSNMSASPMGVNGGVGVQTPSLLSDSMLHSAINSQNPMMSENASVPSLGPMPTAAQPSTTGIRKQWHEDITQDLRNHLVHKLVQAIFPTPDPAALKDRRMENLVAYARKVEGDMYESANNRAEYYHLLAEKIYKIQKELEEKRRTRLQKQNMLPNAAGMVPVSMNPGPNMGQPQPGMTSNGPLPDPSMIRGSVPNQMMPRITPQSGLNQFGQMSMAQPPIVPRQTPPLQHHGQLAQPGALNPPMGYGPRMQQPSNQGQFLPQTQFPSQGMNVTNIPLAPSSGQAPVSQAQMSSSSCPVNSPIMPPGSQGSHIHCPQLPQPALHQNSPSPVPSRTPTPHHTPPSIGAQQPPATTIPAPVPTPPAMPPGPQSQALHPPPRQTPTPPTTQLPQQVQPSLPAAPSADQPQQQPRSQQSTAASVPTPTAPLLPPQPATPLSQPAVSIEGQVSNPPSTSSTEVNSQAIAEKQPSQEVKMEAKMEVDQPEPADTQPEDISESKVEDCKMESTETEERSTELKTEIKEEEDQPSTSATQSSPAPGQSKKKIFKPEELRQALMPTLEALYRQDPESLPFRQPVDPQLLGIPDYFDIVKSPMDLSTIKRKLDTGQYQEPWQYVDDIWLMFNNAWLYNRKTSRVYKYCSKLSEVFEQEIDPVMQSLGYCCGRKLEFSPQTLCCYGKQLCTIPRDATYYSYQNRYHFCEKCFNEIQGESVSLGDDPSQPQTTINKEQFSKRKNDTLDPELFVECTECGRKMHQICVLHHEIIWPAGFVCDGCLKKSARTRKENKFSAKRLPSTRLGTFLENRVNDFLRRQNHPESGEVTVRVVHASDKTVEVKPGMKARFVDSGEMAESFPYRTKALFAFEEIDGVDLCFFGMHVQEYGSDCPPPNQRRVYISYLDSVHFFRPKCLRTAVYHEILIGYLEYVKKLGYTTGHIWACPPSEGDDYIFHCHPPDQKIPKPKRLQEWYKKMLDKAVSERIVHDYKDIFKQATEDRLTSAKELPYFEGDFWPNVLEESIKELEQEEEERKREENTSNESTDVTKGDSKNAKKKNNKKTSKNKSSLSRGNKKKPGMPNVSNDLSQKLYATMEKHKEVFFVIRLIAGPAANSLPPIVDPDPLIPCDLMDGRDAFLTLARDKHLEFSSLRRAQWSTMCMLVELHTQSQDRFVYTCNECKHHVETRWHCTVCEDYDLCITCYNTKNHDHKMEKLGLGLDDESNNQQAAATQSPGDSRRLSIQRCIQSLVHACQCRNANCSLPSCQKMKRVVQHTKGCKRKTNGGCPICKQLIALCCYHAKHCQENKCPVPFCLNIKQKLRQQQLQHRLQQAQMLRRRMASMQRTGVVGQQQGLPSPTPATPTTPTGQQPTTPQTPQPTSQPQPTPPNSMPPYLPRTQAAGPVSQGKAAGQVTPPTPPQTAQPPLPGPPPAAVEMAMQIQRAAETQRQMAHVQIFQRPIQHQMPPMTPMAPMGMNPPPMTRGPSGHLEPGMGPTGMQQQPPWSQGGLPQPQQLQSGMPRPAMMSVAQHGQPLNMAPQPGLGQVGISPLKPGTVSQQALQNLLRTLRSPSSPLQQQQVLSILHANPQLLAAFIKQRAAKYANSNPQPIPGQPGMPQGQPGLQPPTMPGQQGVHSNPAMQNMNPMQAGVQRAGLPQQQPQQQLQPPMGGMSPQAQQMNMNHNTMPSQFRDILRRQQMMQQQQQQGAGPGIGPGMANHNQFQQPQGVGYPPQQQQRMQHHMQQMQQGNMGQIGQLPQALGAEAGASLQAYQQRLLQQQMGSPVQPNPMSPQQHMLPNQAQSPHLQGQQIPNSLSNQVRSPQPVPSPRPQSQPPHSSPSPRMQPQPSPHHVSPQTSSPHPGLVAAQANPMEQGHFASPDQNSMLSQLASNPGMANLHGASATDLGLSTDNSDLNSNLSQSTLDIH

UMSCC47 cells [1] = assay: Clonogenic survival (crystal violet); assay type: cell-based, human; settings: UMSCC47/CH1 cells
Experimental: (§1) Cell proliferation was assessed using the MTT reagent (Roche Molecular Biochemicals, Nutley, N.J.) to detect metabolic active cells. Absorbance was measured at 570 nm in the Spectra Max 190 ELISA reader (Molecular Devices, Sunnyvale, Calif.) after overnight incubation. For clonogenic survival, 200 cells per well were plated in complete growth media and allowed to grow until visible colonies were formed (14 days). Cell colonies were fixed with cold methanol, stained with 0.25% crystal violet in 25% methanol, washed, and air dried. For apoptosis, cells were harvested, washed with cold PBS, and co-stained with Annexin V and propidium iodide according to the manufacturer's protocol (ApoAlert Annexin V-FITC Apoptosis Kit; Clontech). Apoptotic cells were analyzed using BD FACS Calibur (BD Biosciences Corporation, Franklin Lakes, N.J.) at The Ohio State University Comprehensive Cancer Center Analytical Cytometry Core.

UPCI:SCC090 cells [2] = assay: Clonogenic survival (crystal violet); assay type: cell-based, human; settings: UPCI:SCC090/CH1 cells
Experimental: as §1

UMSCC74A cells [3] = assay: Clonogenic survival (crystal violet); assay type: cell-based, human; settings: overexpression of CH1, UMSCC74A cells
Experimental: as §1

UMSCC47 cells [4] = assay: ALDH (ALDEFLUOR) and CD44 (FACS) cancer initiating cell markers; assay type: cell-based, human
Experimental: Cells were assessed for ALDH activity using the ALDEFLUOR kit according to the manufacturer's protocol (Stem Cell Technologies, British Columbia, Canada). Cells were suspended in ALDEFLUOR assay buffer containing ALDH substrate (bidipy-aminoacetaldehyde, 1 μM per 1×10^6 cells) and incubated for 40 minutes at 37° C. For each experiment, a sample of cells was incubated with 50 mM of diethylaminobenzaldehyde (DEAB), a specific ALDH inhibitor, to serve as the negative control. For CD44 expression, cells were harvested and resuspened in incubation buffer with PE-CD44 antibody (Abcam) or mouse PE-IgG (Abcam) for 50 minutes on ice. Suspensions were centrifuged at 300×g for 5 minutes at 4° C. and resuspend in 0.5 mL of 1% paraformaldehyde solution for analysis. Fluorescence activated cell sorting (FACS) analyses were performed using BD FACS Calibur at The Ohio State University Comprehensive Cancer Center Analytical Cytometry Core.

HPV16 E6-p300 = target: T2, HPV16 E6-p300 (Homo sapiens, UniProt Q09472); assay: Immunoprecipitation of HPV16 E6-p300 association; assay type: cell-based; settings: exogenous CH1; UMSCC47 and UPCI:SCC090 cells
T2 construct: Cell lysates were extracted, immunoprecipitated with anti-p300 antibody, and immunoblotted with anti-E6 antibody; endogenous in cells; host or cells: UMSCC47 (HPV16-positive HNSCC)
T2 sequence (Q09472 whole entry): as above
Experimental: Cells were lysed with NP buffer [50 mM Tris (pH 8.0), 150 mM NaCl, 0.5% deoxycholate, 0.1% SDS, and 1.0% NP-40] containing 1× Protease Inhibitor Cocktail (Roche, Switzerland) at 4° C. with gentle rocking for 15 min. The supernatant was pre-cleared to block nonspecific binding with 50 μL protein A/G Agarose beads (Pierce Biotechnology) that had been pre-washed with NP buffer before use. Equal amounts of anti-E6 antibody (Abcam), anti-p300 antibody (Millipore), or IgG antibody (Cell Signaling) were added to the respective samples. After 4 hours incubation at 4° C., 50 μL pre-washed protein A/G-agarose beads were added to each tube and immunoprecipitation was performed by rocking overnight at 4° C. The immunoprecipitated complexes were washed with NP buffer and then eluted using 2×SDS sample buffer. Eluted sample and 10% of input were resolved by SDS-PAGE for Western blot analysis with anti-E6, anti-p300, or anti-V5 antibodies.

UMSCC47 cells [5] = assay: Tumorsphere formation; assay type: cell-based, human; settings: overexpression of CH1, UMSCC47 cells
Experimental: Cells were harvested and seeded in a serum-free defined medium consisting of KSF medium supplemented with epidermal growth factor, basic fibroblast growth factor, insulin, and hydrocortisone in low-attachment plates (Corning Incorporated, Corning, N.Y.) for tumorspheres. Tumorsphere formation efficiency was calculated as the number of tumorspheres ([…] in diameter) formed in 7 days divided by the original number of cells seeded. Tumorsphere diameter was measured using NIS-Elements software.

p53 [6] = assay: p53 transcriptional activity (Cignal p53 Firefly/Renilla luciferase reporter); assay type: cell-based, human
Experimental: Cells were transfected with 100 ng of Cignal p53 reporter (SABiosciences, Valencia, Calif.) using Lipofectamine 2000. Cignal p53 reporter contains tandem repeats of the p53 consensus transcriptional response element. After 48 hours, cells were washed with cold PBS, lysed in passive lysis buffer (Promega), and measured for Firefly/Renilla dual luciferase activities in a luminometer using the Dual-Light System (Applied Biosystems, Foster City, Calif.). […] to control for transfection efficiency. A modification to the protocol was used for compound treatment. UMSCC47 cells were transfected with 100 ng of Cignal p53 reporter. After 24 hours, cells were treated with vehicle, CH1iB (10 μM), cis-platinum (10 μM), or combination of CH1iB (10 μM) and cis-platinum (10 μM) and measured for Firefly/Renilla dual luciferase activities 24 hours post-treatment.

[7] = system: p300, p53, p21, miR-34a, miR-200c; assay: Quantitative real-time PCR of p300, p53, p21, miR-34a and miR-200c expression; assay type: cell-based, human
Experimental: Cells were extracted for total RNA using the TRIzol® reagent (Invitrogen) or TaqMan PreAmp Cells-to-CT kit (Applied Biosystems). Expression of p300, p53, p21, miR-34a and miR-200c were determined using the Applied Biosystems 7900HT Fast Real-Time PCR System with validated TaqMan gene expression assays (Applied Biosystems). p53, p300, and p21 expression were normalized to GADPH and miR-34a and miR-200c expression were normalized to RNU44 using the ΔΔCt method.

UMSCC47 cells [8] = assay: Apoptosis (Annexin V FACS); assay type: cell-based, human; settings: CH1 overexpression
Experimental: as §1

UPCI:SCC090 cells [9] = assay: Apoptosis (Annexin V FACS); assay type: cell-based, human; settings: CH1 overexpression
Experimental: as §1

UMSCC74A cells [10] = assay: Apoptosis (Annexin V FACS); assay type: cell-based, human; settings: overexpression of CH1, UMSCC74A cells
Experimental: as §1

p53 [11] = assay: Western blot of total and acetylated[K382] p53 levels; assay type: cell-based, human
Experimental: Whole cell lysates were mixed with Laemmli loading buffer, boiled, separated by SDS-PAGE, and transferred to a nitrocellulose membrane. Subsequently, immunoblot analyses were performed using antibodies specific to V5 (Invitrogen), p53 (sc-126, Santa Cruz Biotechnology, Santa Cruz, Calif.), or acetylated[[…]]-p53 (2525, Cell Signaling Technology). The signal was developed using the SuperSignal Western Blotting Kit (Pierce, Rockford, Ill.).

UMSCC47 cells [12] = assay: Cell proliferation (MTT); assay type: cell-based, human
Experimental: as §1

UPCI:SCC090 cells [13] = assay: Cell proliferation (MTT); assay type: cell-based, human; settings: UPCI:SCC090/CH1 cells
Experimental: as §1

UMSCC74A cells [14] = assay: Cell proliferation (MTT); assay type: cell-based, human; settings: overexpression of CH1, UMSCC74A cells
Experimental: as §1

UMSCC47 cells [15] = assay: Tumor incidence and growth in athymic nude mice; assay type: in vivo
Experimental: After 3 weeks, tumors were measured once a week using a digital caliper and tumor volumes were calculated using the formula d1×d2×d3×0.5236, where “d” represents the three orthogonal diameters. Tumor growth and incidence were monitored for 49 days following tumor cell implantation.

[16] = CH1 overexpression, UMSCC47 cells
[17] = CH1 overexpressing UMSCC47 and UPCI:SCC090 cells

“CH1: CH1 domain of p300 ectopically expressed from pcDNA3.1/CH1 in stably transfected HNSCC cells” was tested, and the “interaction between p300 and MDM2” value (MDM2-p300) was “disrupted”, the “clonogenic survival, reduced by” value (UMSCC47 cells [1]) was 55% and the “clonogenic survival, reduced by” value (UPCI:SCC090 cells [2]) was 58%. For the same substance, the “clonogenic survival, inhibited by” value (UMSCC74A cells [3]) was 70%, the “ALDH^high population, reduced by” value (UMSCC47 cells [4]; [16]) was 46% and the “CD44^high population, reduced by” value (UMSCC47 cells [4]; [16]) was 31%. The “CD44 levels (FACS), reduced by” value (UMSCC47 cells [4]; UMSCC47/CH1 vs UMSCC47/empty cells) was 33%, the “association between E6 and p300” value (HPV16 E6-p300) was “reduce the association between E6 and p300” and the “tumorsphere diameter, reduced by” value (UMSCC47 cells [5]) was 25%. The “tumorsphere formation efficiency, inhibited by” value (UMSCC47 cells [5]) was 42%, the “p53 transcription activity, elevated by” value (p53 [6]; UMSCC47/CH1 cells vs empty vector) was 85% and the “p53 transcription activity, elevated by” value (p53 [6]; UMSCC74A/CH1 vs UMSCC74A/empty cells) was 68%. For the same substance, the “p53 transcription activity, elevated by” value (p53 [6]; UPCI:SCC090/CH1 cells vs empty vector) was 50%, the “miR-34a expression, increased by” value ([7]; UMSCC47/CH1 cells) was 323% and the “miR-200c expression, increased by” value ([7]; UMSCC47/CH1 cells) was 80%. The “p21 expression, increased by” value ([7]; UMSCC47/CH1 cells) was 114%, the “miR-34a expression, increased by” value ([7]; UPCI:SCC090/CH1 cells) was 134% and the “miR-200c expression, increased by” value ([7]; UPCI:SCC090/CH1 cells) was 49%. For the same substance, the “p21 expression, increased by” value ([7]; UPCI:SCC090/CH1 cells) was 39%, the “p53 and p300 expression” value ([7]; overexpression of CH1, UMSCC47 and UPCI:SCC090) was “no effect” and the “apoptosis, increased by” value (UMSCC47 cells [8]) was 60%. The “apoptosis, increased by” value (UPCI:SCC090 cells [9]) was 27%, the “apoptosis, increased by” value (UMSCC74A cells [10]) was 95% and the “acetylated p53” value (p53 [11]; [17]) was “increase”. The “total p53” value (p53 [11]; [17]) was “accumulation”, the “total and acetylated p53” value (p53 [11]; ectopic expression of CH1, HPV-negative UMSCC74A cells) was “increased” and the “cell proliferation, reduced by” value (UMSCC47 cells [12]; UMSCC47/CH1 cells) was 20%. For the same substance, the “cell proliferation, reduced by” value (UPCI:SCC090 cells [13]) was 11%, the “cell proliferation, inhibited by” value (UMSCC74A cells [14]) was 48% and the tumor incidence (UMSCC47 cells [15]; 3×10^4 UMSCC47/CH1 cells implanted (UMSCC47/empty 50%)) was 0%. The mean tumor volume (UMSCC47 cells [15]; 3×10^5 UMSCC47/CH1 cells implanted (UMSCC47/empty 142 mm^3)) was 67 mm^3 and the “tumor incidence vs UMSCC47/empty” value (UMSCC47 cells [15]; 3×10^5 cells implanted in flanks, 49 days) was “the same”.

With XELA*RAADQ-NH2 [CH1iB-mut] the “p53 activity, increase” value (p53 [6]; HPV-positive UMSCC47 cells, 10 μM, 24 hours, vs vehicle) was 14%, the “effect on anti-proliferative efficacy of cis-platinum” value (UMSCC47 cells [12]; UMSCC47 cells, 10 μM with cis-platinum 10 μM) was “no effect” and the “cell proliferation, single-agent” value (UMSCC47 cells [12]; UMSCC47 cells, 10 μM, 24-72 hours) was “no effect”.
